No end group written: not given here. *: point of attachment. Biotin = O=C1N[C@H]2[C@H](CS[C@H]2CCCCC(=O)*)N1

The test has as its system WW domains of WWP2 expressed as GST fusion proteins. Put plainly: ELISA based cross affinity mapping, WW domains of WWP2. The test is classed as binding, human. As to conditions: biotinylated peptide-streptavidin/alkaline phosphatase complex; GST fusion proteins; ELISA. The protocol: The 16 day mouse embryo cDNA expression library was diluted 1:1000 in SM solution (100 mM NaCl, 8 mM MgSOv4, 50 mM Tris HCl pH 7.5, 0.01% gelatin). To a sterile test tube, 2 μl of diluted mouse embryo library, 100 μl of 10 mM CaCl2, 100 μl of 10 mM MgCl2 and 100 μl of BL21(DE3)pLysE bacterial cells (grown overnight) were added and incubated for 30 minutes at 37° C. The contents of the tube were mixed with 3 ml of 0.6% top agarose, containing […] chloramphenicol, and poured onto a 2xYT plate (90 mm diameter). For a large primary screen, 10–20 plates were prepared with 3×10^4 pfu per plate. After 6 hours incubation at 37° C., a nitrocellulose filter soaked in 10 mM isopropyl-β-D-thiogalactopyranoside (IPTG) was overlaid on each plate and incubated 3–6 hours at 37° C. Before the filters were removed from the plates, they were marked asymmetrically with India ink in a 18 gauge syringe needle. The plates were stored at 4° C. until ready for the secondary screen. The filters were washed with PBS (137 mM NaCl, 2.7 mM KCl, 4.3 mM Na2HPO4, 1.4 mM KH2PO4)-0.05% Triton X-100 three times at room temperature, 15 minutes each wash, and then placed in a plastic bag containing non-specific blocking solution (PBS-2% BSA) for one hour. In the meantime, 1 ml of 1 mM biotinylated peptide in PBS-0.1% Tween 20 was added to 20 ml of 1 mg/ml streptavidin-alkaline phosphatase (SA-AP) in PBS-0.1% Tween 20 and incubated at 4° C. for 30 minutes. […] Excess biotin-binding sites would then be blocked by addition of 500 pmol biotin. […] Ten μl of 0.1 mM biotin would then be added, and the solution incubated for an additional 15 min.
To determine the ligand preferences of the novel WW omain-containing clones described in Sections 6.1 and 6.1.1, as well as addressing the issue of whether peptides containing PPPPY (SEQ ID NO:3)-like motifs derived from a variety of proteins could also serve as recognition units and bind to these clones, a cross affinity mapping experiment was performed (FIGS. 15A–D). The peptides shown in FIGS. 15A–D were synthesized, biotinylated, complexed with streptavidin-alkaline phosphatase, and tested in an ELISA based assay for their ability to bind to the twelve individual novel WW domains of WWP1, WWP2, WWP3 and WWP4 which were expressed as GST fusion proteins. The ELISA based cross-affinity experiments were performed essentially as described by Sparks et al. (1996, Proc. Natl. Acad. Sci. 93:1540–1544) with the following modifications. Briefly, microtiter wells were coated with 1–5 μg of fusion protein in 100 mM NaHCO3, blocked with SuperBlock TBS (Pierce) and washed four times with PBS, 0.05% Tween 20. Specific peptide-streptavidin/alkaline phosphatase complexes were added as above and unbound complexes washed five times with PBS, 0.05% Tween 20. Following addition of PNP substrate (p-nitrophenyl phosphate, Kirkegard & Perry Labs), peptide binding was quantitated after 30 min. at O.D. 405 nm. Relative binding measurements from three independent determinations were assigned to a scale as follows: O.D. units 0–0.5=(−), 0.5–1.0=(+), 1.0–2.0=(++), 2.0–3.0=(+++), >3.0=(++++). Peptide binding to human Fyn and Lyn SH3 and SH2 domains was assessed by a filter binding assay (see Section 6.1 and Sparks et al., 1996, Proc. Natl. Acad. Sci 93:1540–1544). Peptide sequences used in cross-affinity experiments correspond to segments of the following genes: RasGap (Database accession # P20936), AP-2 (P05549), p53BP-2 (U09582), IL-6Rα (P22272), voltage-gated chloride channel CLCN5 (X91906), IL-2Rγ (D111086), RSV (D10652), HTLV-1 (D13784), β-dystroglycan (L19711), Formin (X53599), amiloride-sensitive epithelial Na^+ channel ENaCα (P37089), ENaCβ (X87159) and ENaCγ (X87160), muscarinic acetylcholine receptor M4 AChR (P08173), and c-Abl (P00522). Src and Crk SH3 binding peptide sequences were derived from a phage display random peptide library screen (Section 6.1 and Sparks et al., 1996, Proc. Natl. Acad. Sci. 93:1540–1544).
(An ELISA detects its analyte on a solid surface through an enzyme-linked reagent.)

On to Biotin-SGSGPGTPPPPYTVGPGY [WBP-1], for which the “binding to WW domains of WWP2” value was “specifically bind”.

Take Biotin-SGSGPGTPYPPPPEFY [WBP-2B]: the “binding to WW domains of WWP2” value is listed as “none of the WW domains of these proteins specifically bind”.

For the substance Biotin-SGSGYVQPPPPPYPGPM [WBP-2A], the “binding to WW domains of WWP2” value is recorded as “specifically bind”.

(Values after patent US7279548B2, “Identification and isolation of novel polypeptides having WW domains and methods of using same” (Cytogen Corporation, priority 1996, dated 2007).)
